This note sets out measurements from patent US20260306640A1, “TECHNOLOGIES TARGETING CELL STATES” (Auron Therapeutics, Inc., priority 2023, published 2026).

One assay addresses KAT2B (Homo sapiens, UniProt Q92831). The experiment in a line: KAT2B degradation, Western Blot (Jess), NCI-H1048 cells. The format is cell-based. Further details: degrader, Western blot (Jess). As to conditions: NCI-H1048 cells, KAT2B, 24 h, Western Blot, vs DMSO; read-out: KAT2B NCI-H1048 DC50. The essentials: (§1)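 DC50 came from protein loss relative to DMSO, measured by Jess capillary immunoblot of RIPA lysates with chemiluminescence read-out. Before lysis, NCI-H1048 cells in 5% FBS HITES medium were exposed to compound for 24 h at 37° C.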
Background: In western blotting, separated proteins are transferred to a membrane and probed.

The target of another assay is KAT2A (Homo sapiens, UniProt Q92830). Kind of assay: KAT2A degradation, Western Blot (Jess), NCI-H1048 cells. The format is cell-based. Also on record: degrader, Western blot (Jess). To be noted: NCI-H1048 cells, KAT2A, 24 h, Western Blot, vs DMSO; read-out: KAT2A NCI-H1048 DC50. The essentials: as §1
Sequence of KAT2A (Q92830 whole entry): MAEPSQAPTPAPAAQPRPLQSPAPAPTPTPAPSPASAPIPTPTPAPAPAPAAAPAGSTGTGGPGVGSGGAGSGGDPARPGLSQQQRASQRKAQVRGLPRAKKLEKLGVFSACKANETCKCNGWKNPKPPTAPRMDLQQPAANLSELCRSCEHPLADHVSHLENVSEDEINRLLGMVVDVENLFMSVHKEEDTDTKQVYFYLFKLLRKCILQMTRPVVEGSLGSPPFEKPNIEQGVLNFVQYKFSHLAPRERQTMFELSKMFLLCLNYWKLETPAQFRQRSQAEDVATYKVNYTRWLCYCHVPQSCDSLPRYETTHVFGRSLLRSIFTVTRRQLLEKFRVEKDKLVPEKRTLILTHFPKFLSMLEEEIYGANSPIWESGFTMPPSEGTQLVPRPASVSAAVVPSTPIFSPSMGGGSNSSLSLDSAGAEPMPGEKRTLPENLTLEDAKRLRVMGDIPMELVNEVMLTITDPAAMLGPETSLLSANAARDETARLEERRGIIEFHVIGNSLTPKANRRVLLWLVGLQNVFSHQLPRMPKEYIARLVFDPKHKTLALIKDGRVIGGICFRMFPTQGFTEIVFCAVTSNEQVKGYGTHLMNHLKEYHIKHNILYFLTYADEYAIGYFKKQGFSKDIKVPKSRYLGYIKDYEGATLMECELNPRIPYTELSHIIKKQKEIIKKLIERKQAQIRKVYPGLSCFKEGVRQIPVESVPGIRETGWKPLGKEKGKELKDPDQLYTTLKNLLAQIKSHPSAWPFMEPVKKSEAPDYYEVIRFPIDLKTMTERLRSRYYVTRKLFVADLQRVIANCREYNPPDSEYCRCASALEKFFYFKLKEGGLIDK

Sequence of KAT2B (Q92831 whole entry): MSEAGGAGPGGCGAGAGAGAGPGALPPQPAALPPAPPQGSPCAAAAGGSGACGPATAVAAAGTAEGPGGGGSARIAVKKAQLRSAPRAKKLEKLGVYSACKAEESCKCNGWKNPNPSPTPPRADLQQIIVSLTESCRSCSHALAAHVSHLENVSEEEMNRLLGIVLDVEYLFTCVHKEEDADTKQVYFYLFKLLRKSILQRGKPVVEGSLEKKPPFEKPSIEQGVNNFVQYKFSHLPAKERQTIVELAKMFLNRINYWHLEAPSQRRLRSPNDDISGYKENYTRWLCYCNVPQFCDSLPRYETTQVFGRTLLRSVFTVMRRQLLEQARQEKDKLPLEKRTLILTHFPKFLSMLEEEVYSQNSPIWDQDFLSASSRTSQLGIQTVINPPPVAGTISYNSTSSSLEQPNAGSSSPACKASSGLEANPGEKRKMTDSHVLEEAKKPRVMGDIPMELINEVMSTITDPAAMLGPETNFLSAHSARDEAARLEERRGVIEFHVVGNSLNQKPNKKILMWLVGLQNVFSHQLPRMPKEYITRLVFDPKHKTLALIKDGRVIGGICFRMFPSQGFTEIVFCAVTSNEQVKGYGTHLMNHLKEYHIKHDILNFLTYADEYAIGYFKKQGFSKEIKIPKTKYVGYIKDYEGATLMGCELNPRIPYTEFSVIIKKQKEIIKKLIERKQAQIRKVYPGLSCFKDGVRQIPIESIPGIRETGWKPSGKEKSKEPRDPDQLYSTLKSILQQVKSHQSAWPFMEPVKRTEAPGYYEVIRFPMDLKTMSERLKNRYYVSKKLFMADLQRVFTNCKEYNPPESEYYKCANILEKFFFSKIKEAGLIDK

Consider `CN1C[C@H](Nc2cnn(C)c(=O)c2Cl)C[C@H](c2ccc(C(=O)N3CCC4(CCC(c5ccc6c(C7CCC(=O)NC7=O)cncc6c5)CC4)CC3)cc2)C1` (stereo partly shown) [Compound 329], for which the DC50 on KAT2B and at KAT2A was less than 1 nM in each case.
Consider `CN1C[C@H](Nc2cnn(C)c(=O)c2Br)C[C@H](c2ccc(C(=O)N3CCC(c4ccc5c(C6CCC(=O)NC6=O)cncc5c4)CC3)cc2)C1` (stereo partly shown) [Compound 330], for which the DC50 at KAT2B was greater than 30 nM; on KAT2A, less than 1 nM.
The like results for `CN1C[C@H](Nc2cnn(C)c(=O)c2Cl)C[C@H](c2ccc(C(=O)N3CCC(c4ccc5c(C6CCC(=O)NC6=O)cncc5c4)CC3)cc2)C1` (stereo partly shown) [Compound 331] were, in that order, greater than 30 nM and less than 1 nM.
As for `CN1C[C@H](Nc2cnn(C)c(=O)c2Cl)C[C@H](c2ccc(C(=O)N3CCC(C#Cc4ccc(C5CCC(=O)NC5=O)cc4)CC3)cc2)C1` (stereo partly shown) [Compound 332], the half-maximal degradation concentration (DC50) on KAT2B was greater than 30 nM; at KAT2A it was less than 1 nM.
The corresponding values for `Cc1c(N[C@@H]2C[C@H](c3ccc(C(=O)N4CCC(C#Cc5ccc(C6CCC(=O)NC6=O)cc5)CC4)cc3)CN(C)C2)cnn(C)c1=O` (stereo partly shown) [Compound 333] are greater than 30 nM and less than 1 nM.
The corresponding values for `CN1C[C@H](Nc2cnn(C)c(=O)c2Br)C[C@H](c2ccc(C(=O)N3CCC(C#Cc4ccc(C5CCC(=O)NC5=O)cc4)CC3)cc2)C1` (stereo partly shown) [Compound 334] are 1 to 30 nM and less than 1 nM.
As for `CN1C[C@H](Nc2cnn(C)c(=O)c2Br)C[C@H](c2ccc(C(=O)N3CC(C#Cc4ccc(C5CCC(=O)NC5=O)cc4)C3)cc2)C1` (stereo partly shown) [Compound 335], the half-maximal degradation concentration (DC50) at KAT2B is greater than 30 nM; at KAT2A it was less than 1 nM.
The like results for `CN1C[C@H](Nc2cnn(C)c(=O)c2Cl)C[C@H](c2ccc(C(=O)N3CC(C#Cc4ccc(C5CCC(=O)NC5=O)cc4)C3)cc2)C1` (stereo partly shown) [Compound 336] were, in that order, greater than 30 nM and less than 1 nM.
As to `CN1C[C@H](Nc2cnn(C)c(=O)c2Br)C[C@H](c2ccc(C(=O)N3CC(C#Cc4ccc(C5CCC(=O)NC5=O)cc4)C3)cc2)C1` (stereo partly shown) [Compound 337], the 50% degradation concentration (DC50) at KAT2B is greater than 30 nM; on KAT2A, less than 1 nM.
Take `Cc1cc(N2CCC3(CCN(Cc4ccc([C@H]5C[C@@H](Nc6cnn(C)c(=O)c6Cl)CN(C)C5)cc4)CC3)CC2)ccc1C1CCC(=O)NC1=O` (stereo partly shown) [Compound 338]: the DC50 on KAT2B and at KAT2A was less than 1 nM each time.
Turning to `Cc1cc(N2CCC3(CCN(Cc4ccc([C@H]5C[C@@H](Nc6cnn(C)c(=O)c6C)CN(C)C5)cc4)CC3)CC2)ccc1C1CCC(=O)NC1=O` (stereo partly shown) [Compound 339], the DC50 on KAT2B and on KAT2A was less than 1 nM throughout.
In the case of `CN1C[C@H](Nc2cnn(C)c(=O)c2Cl)C[C@H](c2ccc(CN3CCC4(CC3)CCN(c3ccc(C5CCC(=O)NC5=O)c(F)c3)CC4)cc2)C1` (stereo partly shown) [Compound 340], the DC50 on KAT2B and at KAT2A was less than 1 nM each time.
Take `CN1C[C@H](Nc2cnn(C)c(=O)c2Cl)C[C@H](c2ccc(CN3CCN(c4ccc(F)c(C5CCC(=O)NC5=O)c4)CC3)cc2)C1` (stereo partly shown) [Compound 341]: the figures for the DC50 at KAT2B and on KAT2A were 1 to 30 nM and less than 1 nM, respectively.
As for `Cc1c(N[C@@H]2C[C@H](c3ccc(CN4CCN(c5ccc(F)c(C6CCC(=O)NC6=O)c5)CC4)cc3)CN(C)C2)cnn(C)c1=O` (stereo partly shown) [Compound 342], the results for the half-maximal degradation concentration (DC50) at KAT2B and at KAT2A were 1 to 30 nM and less than 1 nM, respectively.
The corresponding values for `CN1C[C@H](Nc2cnn(C)c(=O)c2Cl)C[C@H](c2ccc(CN3CCC4(CC3)CCN(c3ccc(C5CCC(=O)NC5=O)c(C(F)(F)F)c3)CC4)cc2)C1` (stereo partly shown) [Compound 343] are greater than 30 nM and greater than 30 nM.
The like results for `CN1C[C@H](Nc2cnn(C)c(=O)c2Cl)C[C@H](c2ccc(CN3CCN(c4cncc(C5CCC(=O)NC5=O)c4)CC3)cc2)C1` (stereo partly shown) [Compound 344] were, in that order, greater than 30 nM and greater than 30 nM.
The like results for `Cc1c(N[C@@H]2C[C@H](c3ccc(CN4CCN(c5cncc(C6CCC(=O)NC6=O)c5)CC4)cc3)CN(C)C2)cnn(C)c1=O` (stereo partly shown) [Compound 346] were, in that order, greater than 30 nM and greater than 30 nM.
`CN1C[C@H](Nc2cnn(C)c(=O)c2Cl)C[C@H](c2ccc(CN3CCN(c4cccc(C5CCC(=O)NC5=O)c4)CC34CC4)cc2)C1` (stereo partly shown) [Compound 347]: the DC50 on KAT2B was greater than 30 nM; at KAT2A, 1 to 30 nM.
The like results for `CN1C[C@H](Nc2cnn(C)c(=O)c2Br)C[C@H](c2ccc(CN3CCN(c4cccc(C5CCC(=O)NC5=O)c4)CC34CC4)cc2)C1` (stereo partly shown) [Compound 348] were, in that order, 1 to 30 nM and less than 1 nM.
The like results for `Cc1c(N[C@@H]2C[C@H](c3ccc(CN4CCN(c5cccc(C6CCC(=O)NC6=O)c5)CC45CC5)cc3)CN(C)C2)cnn(C)c1=O` (stereo partly shown) [Compound 349] were, in that order, greater than 30 nM and less than 1 nM.
For the compound `CN1C[C@H](Nc2cnn(C)c(=O)c2Br)C[C@H](c2ccc(CN3CCN(c4ccnc(C5CCC(=O)NC5=O)c4)CC3)cc2)C1` (stereo partly shown) [Compound 350], the 50% degradation concentration (DC50) was greater than 30 nM on KAT2B and 1 to 30 nM on KAT2A.
The corresponding values for `CN1C[C@H](Nc2cnn(C)c(=O)c2Cl)C[C@H](c2ccc(CN3CCN(c4ccnc(C5CCC(=O)NC5=O)c4)CC3)cc2)C1` (stereo partly shown) [Compound 351] are greater than 30 nM and 1 to 30 nM.
As to `Cc1c(N[C@@H]2C[C@H](c3ccc(CN4CCN(c5ccnc(C6CCC(=O)NC6=O)c5)CC4)cc3)CN(C)C2)cnn(C)c1=O` (stereo partly shown) [Compound 352], the half-maximal degradation concentration (DC50) was greater than 30 nM at KAT2B and 1 to 30 nM at KAT2A.
The like results for `CN1C[C@H](Nc2cnn(C)c(=O)c2Br)C[C@H](c2ccc(CN3C4CC3CN(c3cccc(C5CCC(=O)NC5=O)c3)C4)cc2)C1` (stereo partly shown) [Compound 353] were, in that order, greater than 30 nM and less than 1 nM.
On to `CN1C[C@H](Nc2cnn(C)c(=O)c2Cl)C[C@H](c2ccc(CN3C4CC3CN(c3cccc(C5CCC(=O)NC5=O)c3)C4)cc2)C1` (stereo partly shown) [Compound 354], for which the figures for the DC50 at KAT2B and at KAT2A were greater than 30 nM and 1 to 30 nM, respectively.
On to `CN1C[C@H](Nc2cnn(C)c(=O)c2Br)C[C@H](c2ccc(CN3CCN(c4cc(C5CCC(=O)NC5=O)ccn4)CC3)cc2)C1` (stereo partly shown) [Compound 355], for which the DC50 at KAT2B was greater than 30 nM; at KAT2A, 1 to 30 nM.
The corresponding values for `CN1C[C@H](Nc2cnn(C)c(=O)c2Cl)C[C@H](c2ccc(CN3CCN(c4cc(C5CCC(=O)NC5=O)ccn4)CC3)cc2)C1` (stereo partly shown) [Compound 356] are greater than 30 nM and 1 to 30 nM.
The like results for `Cc1c(N[C@@H]2C[C@H](c3ccc(CN4CCN(c5cc(C6CCC(=O)NC6=O)ccn5)CC4)cc3)CN(C)C2)cnn(C)c1=O` (stereo partly shown) [Compound 357] were, in that order, greater than 30 nM and 1 to 30 nM.
The corresponding values for `CN1C[C@H](Nc2cnn(C)c(=O)c2Br)C[C@H](c2ccc(CN3CCN(c4cc(C5CCC(=O)NC5=O)c(F)cc4F)CC3)cc2)C1` (stereo partly shown) [Compound 358] are greater than 30 nM and greater than 30 nM.
Regarding `CN1C[C@H](Nc2cnn(C)c(=O)c2Cl)C[C@H](c2ccc(CN3CCN(c4cc(C5CCC(=O)NC5=O)c(F)cc4F)CC3)cc2)C1` (stereo partly shown) [Compound 359], the DC50 at KAT2B and on KAT2A was greater than 30 nM each time.
Regarding `Cc1c(N[C@@H]2C[C@H](c3ccc(CN4CCN(c5cc(C6CCC(=O)NC6=O)c(F)cc5F)CC4)cc3)CN(C)C2)cnn(C)c1=O` (stereo partly shown) [Compound 360], the DC50 on KAT2B and on KAT2A was greater than 30 nM each time.
On to `CN1C[C@H](Nc2cnn(C)c(=O)c2Cl)C[C@H](c2ccc(CN3CCN(c4cccc(C5CCC(=O)NC5=O)c4)CC3)cc2)C1` (stereo partly shown) [Compound 361], for which the half-maximal degradation concentration (DC50) at KAT2B was 1 to 30 nM; on KAT2A, less than 1 nM.
The like results for `Cc1cc(N2CCC3(CCN(C(=O)c4ccc([C@H]5C[C@@H](Nc6cnn(C)c(=O)c6Br)CN(C)C5)cc4)CC3)CC2)ccc1OC1CCC(=O)NC1=O` (stereo partly shown) [Compound 364] were, in that order, greater than 30 nM and less than 1 nM.
The like results for `Cc1cc(N2CCC3(CCN(C(=O)c4ccc([C@H]5C[C@@H](Nc6cnn(C)c(=O)c6Cl)CN(C)C5)cc4)CC3)CC2)ccc1OC1CCC(=O)NC1=O` (stereo partly shown) [Compound 365] were, in that order, less than 1 nM and less than 1 nM.
The like results for `CN1C[C@H](Nc2cnn(C)c(=O)c2Br)C[C@H](c2ccc(C(=O)N3CCC4(CC3)CCN(c3ccc(OC5CCC(=O)NC5=O)cn3)CC4)cc2)C1` (stereo partly shown) [Compound 366] were, in that order, 1 to 30 nM and less than 1 nM.
For `CN1C[C@H](Nc2cnn(C)c(=O)c2Cl)C[C@H](c2ccc(C(=O)N3CCC4(CC3)CCN(c3ccc(OC5CCC(=O)NC5=O)cn3)CC4)cc2)C1` (stereo partly shown) [Compound 367], the DC50 at KAT2B is greater than 30 nM; on KAT2A it was less than 1 nM.
The like results for `CN1CC(Nc2cnn(C)c(=O)c2Cl)CC(c2ccc(CN3CCN(c4cccc(OC5CCC(=O)NC5=O)c4)CC3)cc2)C1` (stereo not shown) [Compound 368] were, in that order, greater than 30 nM and 1 to 30 nM.
The like results for `CN1C[C@H](Nc2cnn(C)c(=O)c2Cl)C[C@H](c2ccc(CN3C4CC3CN(c3cccc(C5CCC(=O)NC5=O)c3)C4)cc2)C1` (stereo partly shown) [Compound 369] were, in that order, greater than 30 nM and 1 to 30 nM.
The corresponding values for `CN1C[C@H](Nc2cnn(C)c(=O)c2Cl)C[C@H](c2ccc(C(=O)N3CCC4(CC3)CCN(c3ccc(NC5CCC(=O)NC5=O)c(F)c3)CC4)cc2)C1` (stereo partly shown) [Compound 372] are 1 to 30 nM and less than 1 nM.
On to `CN1C[C@H](Nc2cnn(C)c(=O)c2Br)C[C@H](c2ccc(C(=O)N3CCC4(CC3)CCN(c3ccc(NC5CCC(=O)NC5=O)c(F)c3)CC4)cc2)C1` (stereo partly shown) [Compound 373], for which the DC50 at KAT2B was 1 to 30 nM; on KAT2A it was less than 1 nM.
In the case of `CN1C[C@H](Nc2cnn(C)c(=O)c2Br)C[C@H](c2ccc(C(=O)N3CCC4(CC3)CCN(c3ccc5c(N6CCC(=O)NC6=O)nccc5c3)CC4)cc2)C1` [Compound 374], the DC50 was greater than 30 nM at KAT2B and less than 1 nM on KAT2A.

For orientation: DC50 means the midpoint of the concentration-degradation curve.
